The values below come from EP3064205A1, “Therapeutic use of isomeric forms of 2-(4-chlorophenyl)quinolin-4-yl)(piperidin-2-yl)methanol” (Glionova AB, priority 2015, dated 2016).

The test system of one assay is KPC cells. Kind of assay: ATP viability assay (CellTiter-Glo), 3D culture, automatic drug screen. The assay is classed as cell-based, mouse. Conditions: 72h. How it is done:
(§1) Panc-1, HPAF II, KPC pancreatic adenocarcinoma cell lines were trypsin-treated and counted using the Casy Cell Counter according to the manufacturer's recommendations (GmbH). Subsequently, they were seeded onto round bottom non-tissue culture treated 96 well-plates (Falcon, BD NJ, USA) at a concentration of 2500 cells/well in 100 µl DMEM-F12 or phenol red-free DMEM-F12 medium, containing 10% FCS and supplemented with 20% methyl cellulose stock solution. For preparation of methylcellulose stock solution, 6 grams of methylcellulose powder (M0512, Sigma-Aldrich) was autoclaved in a 500 ml flask containing a magnetic stirrer (the methylcellulose powder is resistant to this procedure). The autoclaved methylcellulose was dissolved in preheated 250 ml basal medium (60°C) for 20 min (using the magnetic stirrer). Thereafter, 250 ml medium (room temperature) containing double amount of FCS (20%) was added to a final volume of 500 ml and the whole solution mixed overnight at 4°C. The final stock solution was aliquoted and cleared by centrifugation (5000g, 2 h, room temperature). […]
(§2) In order to confirm the results presented in figure 1, S1 was further tested in 2 different cell lines in 3D culture format, using an automatic drug screening assay. The effect of Vacquinol-1 RS (S1) on cell viability was measured after 72h using the CellTiter-Glo assay (Promega) adapted for 3D culture.

Assay [1] has as its system Panc-1 cells. Briefly: APH cell viability assay, 2D culture. Conditions: Panc-1, 2D culture, 30 µM. It counts as cell-based, human. The text has this: (§3) The following well-characterized human pancreatic ductal adenocarcinoma cell lines (ATCC) were used: HPAF II, BxPC-3, MIA-PaCa2 and Panc-1. These cell lines were generated from patient-derived tumors and are widely used model system to study pancreatic cancer (HPAF II: Kim YW, et al. Pancreas 4: 353-362, 1989; BxPC-3: Tan MH, et al. Cancer Invest. 4: 15-23, 1986; MIA-PaCa2: Yunis AA, et al. Int. J. Cancer 19: 128-135, 1977; Pacn-1: Lieber M, et al. Int. J. Cancer 15: 741-747, 1975).
For 2D culture, cells were seeded on flat bottom 96 well plates (Costar) at a concentration of 2500 cells/well in 100 µl phenol red-free RPMI-F12 medium containing 10% FCS. For 3D culture, cells were seeded according to the description for spheroid preparation in phenol-free medium. On day 4 Vacquinol-1 RS (S1) was added at the indicated final concentrations in an extra volume of 10 µl/well and in 8 replicates for each time point. On day 7, an APH assay (See below) was performed. The viability rate was calculated as a percentage of the untreated cells. All data were expressed as the mean ± SD of at least 8 replicates. To confirm the reliability of the APH assay on 2D culture, cell viability was measured using CellTiter-Glo assay (Promega).
The APH assay, which measures the activity of acidic phosphatase in the cells, was optimized for 3D cultures as follows. Only 70µl of medium was removed in order not to suck up the spheres. Then 60µl of PBS was added per well and 100µl of APH buffer (0.1 M sodium acetate pH 5.2 and 0.1 % triton X-100) containing the substrate (2mg/ml p-nitrophenyl phosphate, final pH 4.8 from Thermo Scientific). After 2 hours incubation for the 2D culture and 5 hours for the 3D culture, 10µl of 1 M NaOH was added to stop the APH activity. Absorbance at 405nm was measured within 10 minutes using a FluoStar OPTIMA plate reader (BMG Labtech). Viability rate was calculated as per cent of CTR untreated cells. All data are expressed as the mean ± SD of at least 8 replicates.

Assay [2] relates to Panc-1 cells. Kind of assay: ATP viability assay (CellTiter-Glo), 3D culture, automatic drug screen. It counts as cell-based, human. Conditions: Panc-1, 3D culture, 72 h.
Excerpt: as §3
as §1, with “temperature). Only the clear highly viscous supernatant was used for the spheroid assay (about 90-95% of the stock solution).” for “temperature).”
as §2
On the technique in general: ATP-based viability assays read luminescence as a measure of living cells.

For a further assay, the system named is HPAF II cells. The assay is described as above. It counts as cell-based, human. Conditions: 72 h, 30-10 µM.
Excerpt: as §3
as §1, with “temperature). Only the clear highly viscous supernatant was used for the spheroid assay (about 90-95% of the stock solution).” for “temperature).”
as §2

For `O[C@H](c1cc(-c2ccc(Cl)cc2)nc2ccccc12)[C@@H]1CCCCN1` [S1, (R)-(2-(4-chlorophenyl)quinolin-4-yl)((S)-piperidin-2-yl)methanol], the reduction in viability in the assay on KPC cells (10 µM) was around 50%. Besides, the “viability compared to control” value in the assay on KPC cells (30-15 µM) is reported as “complete loss of viability”; in the assay with Panc-1 cells [2] (30 and 25 µM), “marked decrease in viability”; with HPAF II cells it was “marked decrease in viability”. The “decrease in cell viability” value with Panc-1 cells [1] (24h) turned out to be 43%; with Panc-1 cells [1] (48h), 63%; with Panc-1 cells [1] (72h), 70%. In addition, the decrease in viability in the assay on Panc-1 cells [2] (20-10 µM) is given as around 20%.
